Source: patent US20200147038A1, “ASSESSING AND TREATING PSYCHEDELIC-[…]” (Eleusis Benefit Corporation, PBC, priority 2017, published 2020)
Several values for one entry are separate records, joined by “and”; a condition that tells them apart may be missing. Equal values may be shown once.

Experiments:
[1] = Retrospective online survey of psilocybin users (Example 2; 5D-ASC Mystical-OBN / Adverse-DED, long-term change); format: in vivo, human; conditions: for Negative Change, Mean / Positive Change, Mean: 5-point scale, 3=no change; for Flourishing, Mean: 6-point scale; for Importance, Mean: slider scale 1 to 100
Source text: Participants were U.S. residents recruited through Amazon Mechanical Turk (MTurk; an online source in which individuals participate in survey studies for small cash compensation) who had ingested psilocybin within the past twelve months. The final screened sample consisted of 183 valid responses with 97 males (53.0%) and 85 females (46.4%) (1 missing), and an average age of 31.9 (SD=9.43) ranging from 18 to 70 years.
[…]. The six sections included background items, trait measures, prior state (i.e., life situation before psilocybin session), proximal state (i.e., emotions and motivation at ingestion), intrasession measures (i.e., the experience itself), and current state. Scaled items in all but the long-term outcomes used […] Likert scales ranging from 1=Strongly Disagree to 6=Strongly Agree. Open-ended questions designed to activate participants' relevant recollections were completed before responding to scale items related to prior state, proximal state, intrasession, and current status. Measures utilized in the regression models include the following;
Measures of intrasession experience based on items from six subscales of the 5D-ASC (Dittrich et al., A Pharmacopsychiatry 1998, 31:80; Studerus et al., PLoS ONE 2010, 5). Mystical-OBN used a mean of items measuring Oceanic Boundlessness (Studerus et al., PLoS ONE 2012, 7): “experience of unity”, “spiritual experience”, “blissful state”, and “insightfulness”. Adverse-DED was a mean of items associated with Dread of Ego Dissolution (Studerus et al., PLoS ONE 2012, 7): “impaired control and cognition”, and “anxiety.” Scores for Mystical-OBN ranged from 1-5.92 (M=3.87, SD=1.16; α=0.93), and scores for Adverse-DED ranged from 1-5.47 (M=2.25, SD=0.98, α=0.91).
Scale items measuring change based on pairs of adjectives adapted from Griffiths (2006). Individuals used a 5-point scale to indicate whether they had experienced a decrease, no change, or an increase in the characteristics. Positive change was calculated with the mean of nine items related to interpersonal traits, intrapersonal characteristics, and attitudes (Cronbach's α=0.929). Negative change was the mean of three items (α=0.883).
Analyses of the impact of mystical experience on long-term outcomes were conducted in two ways: (1) independent t-test comparisons of each long-term outcome based on a complete or not complete mystical experience, and (2) a path analysis of the mediating role of mystical experience on positive change.
Scores for importance were based on a slider scale ranging from 1 to 100. […] Flourishing was rated on a 6-point scale ranging from 1=strongly disagree to 6=strongly agree.

[2] = Retrospective online survey of individuals who had consumed psilocybin (Example 1; MEQ30, positive change); format: in vivo, human
Description: A retrospective survey study was conducted based on crowdsourced online data gathered from individuals who had volitionally consumed psilocybin within the past year. Data were collected about participants' traits and demographic background, and then individuals were primed to recall their life experience before, at the time of ingestion, during, and after the psilocybin before completing scales to measure hypothesized traits and states. Previously validated scales were used where available (e.g., Tellegen Absorption Scale, MEQ30), and new scales were developed and tested for traits and states without existing measures (mental barriers, identity distress, state of surrender). A hierarchical regression model was used to test the relationships, and a path analysis was conducted to test the mediating capacity of ME.
Participants were directed to the relevant webpage after reading informed consent text, completing screening and agreeing to participate in accordance with the stipulations of the Institutional Review Board. Scaled items in all but the long-term outcomes used 4-point Likert scales ranging from 1=Strongly Disagree to 4=Strongly Agree. Answers were required for each item, but each included an option “I prefer not to answer.”
Participants' experiences were measured in two pages on the survey. The first activated their recollection of the experience through an open-ended question asking them to describe their experience and specific fixed response questions about their experience, including whether their eyes were primarily open or closed and the extent to which they were talking or exposed to media with words during their experience. On the second page, subjects responded to […] intermixed items on a 4-point Likert scale from the Mystical Experience Questionnaire (MEQ30) and 36 items from the Sacred Emotions Scale (SES), measuring the extent to which they felt “exuberance” and “dread” during the experience.
The MEQ30 is a validated scale consisting of 30 items systematically validated and utilized in psychedelic studies. Some of the items from the MEQ30 were adapted for this study so that they were semantically consistent with the other scale (e.g., changed “I felt certain that I′d encountered ultimate reality” to “Certainty that I′d encountered ultimate reality”), and used a 4-point rather than a 7-point scale for reasons described above. The scale measures four dimensions of a mystical experience: (a) Mystical; 15 items with α=0.957, (b) Ineffability; 3 items with α=0.775, (c) Timelessness/Spacelessness; 6 items with α=0.844, and (d) Positive Affect; 6 items with α=0.851. The total scale produced Cronbach α=0.967. All of the reliability scores from this sample were similar to internal reliability scores produced in the norming sample (MacLean), which ranged from 0.831 to 0.936 for the four factors and 0.957 for the total scale.
Participants were asked to describe their current state in two pages. […] The second page offered 46 statements including 15 intermixed items adapted from the work of Griffiths et al., (Psychopharmacology 2006, 187:268-283) measuring
Data were collected on Amazon Mechanical Turk (MTurk), an online source in which individuals participate in survey studies for small cash compensation. […] Individuals who were registered as MTurk Workers from the U.S. indicated their interest by accepting the job or the “hit.” If individuals accepted the “hit,” they were directed to a screening page. If they passed those screening items, described below, they were given a link and password to the informed consent followed by the actual survey. • Screening
The mean number of correct attention items in the final sample was 11.5 of 12 (SD=1.02), and the mean for the non-selected group was 4.69 (SD=3.36) attention items answered correctly. The final sample consisted of 143 valid responses with 81 males and 62 females (43%), and an average age of 31.1 (SD=9.64), with ages ranging from 18 to 62 years. […]

[3] = Complete mystical experience, N=51
[4] = None/partial mystical experience, N=129

CN(C)CCc1c[nH]c2cccc(OP(=O)(O)O)c12 [psilocybin]
Adverse-DED score, mean ([1]; 5D-ASC Dread of Ego Dissolution items, whole sample (183)): 2.25 | Mystical-OBN score, mean ([1]; 5D-ASC Oceanic Boundlessness items, whole sample (183)): 3.87 | Negative Change, Mean [1, 3]: 2.22 | Positive Change, Mean [1, 3]: 4.00 | Flourishing, Mean [1, 3]: 4.78 | Importance, Mean [1, 3]: 75.66 | Negative Change, Mean [1, 4]: 2.75 and 2.74 | Positive Change, Mean [1, 4]: 3.39 | Flourishing, Mean [1, 4]: 4.39 | Importance, Mean [1, 4]: 42.75 | proportion meeting criteria for a complete ME ([2]; MEQ30, >2.5 of 4 on all four subscales, whole sample): 58% | proportion with a full ME, experienced psychedelic users ([2]; MEQ30, >2.5 of 4 on all subscales, experienced users, n=70): 63% | proportion with a full ME, novice users ([2]; MEQ30, >2.5 of 4 on all subscales, novice users, n=13): 42% | proportion reporting complete MEs, reanalysis with cut point of 3 ([2]; MEQ30, cut point 3 of 4 on all subscales): 45% | Positive Change, Mean ([2]; participants with Complete ME, N=83): 3.8348 | Positive Change, Mean ([2]; participants with No/Incomplete ME, N=60): 3.2274 | mean positive change score ([2]; whole sample (143 valid responses), higher scores = increases in positive emotions and decreases in negative emotions): 3.58 (SD=0.65)
